The text below walks through data of ChEMBL document CHEMBL6071211, “Invention of VH-937, a Potent HIV-1 Maturation Inhibitor with the Potential for Infrequent Oral Dosing in Humans” (ACS Med Chem Lett, 2024).

What all share (assay type): functional, organism-based
For assay [1], the system named is Human immunodeficiency virus 1. The assay is described as follows: In vitro antiviral activity against fully replicating wild type HIV1 NL4-3.
The test system of assay [2] is Human immunodeficiency virus 1. Description: In vitro antiviral activity against fully replicating wild type HIV1 NL4-3 in presence of human serum.
The subject of assay [3] is Human immunodeficiency virus 1. Description: In vitro antiviral activity against fully replicating HIV1 NL4-3 harboring Gag T332S/V362I/prR41G mutant.
In assay [4] the test system is Human immunodeficiency virus 1. The assay is described as follows: In vitro antiviral activity against fully replicating HIV1 NL4-3 harboring Gag A364V mutant.
[5] abbreviates: Human immunodeficiency virus 1, NL4-3.

In general, EC50 refers to the concentration that produces a half-maximal response. Turning to `C=C(C)[C@@H]1CC[C@]2(NCCN3CCS(=O)(=O)CC3)CC[C@]3(C)[C@H](CC[C@@H]4[C@@]5(C)CC=C(C6=CCC(COc7ccc(C#N)cn7)(C(=O)O)CC6)C(C)(C)[C@@H]5CC[C@]43C)[C@@H]12` (mixture of isomers), the EC50 is 1.9 nM in assay [1] (setting [5]), 34.3 nM in assay [2] (setting [5]), 232 nM in assay [3] (setting [5]) and 28.8 nM in assay [4] (setting [5]).

`C=C(C)[C@@H]1CC[C@]2(NCCN3CCS(=O)(=O)CC3)CC[C@]3(C)[C@H](CC[C@@H]4[C@@]5(C)CC=C(C6=CCC(COc7ncccn7)(C(=O)O)CC6)C(C)(C)[C@@H]5CC[C@]43C)[C@@H]12` (mixture of isomers): the EC50 in assay [1] (setting [5]) is 1.8 nM; in assay [2] (setting [5]) it was 52.1 nM; in assay [3] (setting [5]), 12.6 nM; in assay [4] (setting [5]), 4.5 nM.

For `C=C(C)[C@@H]1CC[C@]2(NCCN3CCS(=O)(=O)CC3)CC[C@]3(C)[C@H](CC[C@@H]4[C@@]5(C)CC=C(C6=CCC(COc7cc(C#N)ccn7)(C(=O)O)CC6)C(C)(C)[C@@H]5CC[C@]43C)[C@@H]12` (mixture of isomers), the EC50 in assay [1] (setting [5]) is 0.9 nM; in assay [2] (setting [5]), 46.3 nM; in assay [3] (setting [5]), 64.1 nM; in assay [4] (setting [5]), 71.8 nM.

As for `C=C(C)[C@@H]1CC[C@]2(NCCN3CCS(=O)(=O)CC3)CC[C@]3(C)[C@H](CC[C@@H]4[C@@]5(C)CC=C(C6=CCC(COc7ccncc7)(C(=O)O)CC6)C(C)(C)[C@@H]5CC[C@]43C)[C@@H]12` (mixture of isomers), the EC50 in assay [1] (setting [5]) was determined as 2.1 nM; in assay [2] (setting [5]), 33.3 nM; in assay [3] (setting [5]) it was 14.2 nM; in assay [4] (setting [5]) it was 34.6 nM.

As to `C=C(C)[C@@H]1CC[C@]2(NCCN3CCS(=O)(=O)CC3)CC[C@]3(C)[C@H](CC[C@@H]4[C@@]5(C)CC=C(C6=CC[C@@](COc7cnccn7)(C(=O)O)CC6)C(C)(C)[C@@H]5CC[C@]43C)[C@@H]12`, the EC50 stood at 2.8 nM in assay [1] (setting [5]), 48.1 nM in assay [2] (setting [5]), 14.7 nM in assay [3] (setting [5]) and 21.4 nM in assay [4] (setting [5]).

For the compound `C=C(C)[C@@H]1CC[C@]2(NCCN3CCS(=O)(=O)CC3)CC[C@]3(C)[C@H](CC[C@@H]4[C@@]5(C)CC=C(C6=CCC(COc7cccnn7)(C(=O)O)CC6)C(C)(C)[C@@H]5CC[C@]43C)[C@@H]12` (mixture of isomers), the EC50 turned out to be 2.6 nM in assay [1] (setting [5]), 59.8 nM in assay [2] (setting [5]), 47.2 nM in assay [3] (setting [5]) and 3.5 nM in assay [4] (setting [5]).

Take `C=C(C)[C@@H]1CC[C@]2(NCCN3CCS(=O)(=O)CC3)CC[C@]3(C)[C@H](CC[C@@H]4[C@@]5(C)CC=C(C6=CC[C@](COc7ccccn7)(C(=O)O)CC6)C(C)(C)[C@@H]5CC[C@]43C)[C@@H]12`: the EC50 is 1.6 nM in assay [1] (setting [5]), 54.9 nM in assay [2] (setting [5]), 8.8 nM in assay [3] (setting [5]) and 5.8 nM in assay [4] (setting [5]).

For the compound `C=C(C)[C@@H]1CC[C@]2(NCCN3CCS(=O)(=O)CC3)CC[C@]3(C)[C@H](CC[C@@H]4[C@@]5(C)CC=C(C6=CCC(COc7cccnc7)(C(=O)O)CC6)C(C)(C)[C@@H]5CC[C@]43C)[C@@H]12` (mixture of isomers), the EC50 in assay [1] (setting [5]) turned out to be 1.9 nM; in assay [2] (setting [5]), 36.7 nM; in assay [3] (setting [5]) it was 5.8 nM; in assay [4] (setting [5]), 26.9 nM.

In the case of `C=C(C)[C@@H]1CC[C@]2(NCCN3CCS(=O)(=O)CC3)CC[C@]3(C)[C@H](CC[C@@H]4[C@@]5(C)CC=C(C6=CCC(COc7ccccn7)(C(=O)O)CC6)C(C)(C)[C@@H]5CC[C@]43C)[C@@H]12` (mixture of isomers), the EC50 in assay [1] (setting [5]) is 2.6 nM; in assay [2] (setting [5]), 61 nM; in assay [3] (setting [5]), 14.3 nM; in assay [4] (setting [5]), 11.3 nM.

For the compound `C=C(C)[C@@H]1CC[C@]2(NCCN3CCS(=O)(=O)CC3)CC[C@]3(C)[C@H](CC[C@@H]4[C@@]5(C)CC=C(C6=CCC(COCc7ccccc7)(C(=O)O)CC6)C(C)(C)[C@@H]5CC[C@]43C)[C@@H]12` (mixture of isomers), the EC50 in assay [1] (setting [5]) came out at 7.8 nM; in assay [2] (setting [5]) it was 98.2 nM; in assay [3] (setting [5]), 22.1 nM; in assay [4] (setting [5]) it was 49.8 nM.

In the case of `C=C(C)[C@@H]1CC[C@]2(NCCN3CCS(=O)(=O)CC3)CC[C@]3(C)[C@H](CC[C@@H]4[C@@]5(C)CC=C(C6=CCC(COc7nnnn7C)(C(=O)O)CC6)C(C)(C)[C@@H]5CC[C@]43C)[C@@H]12` (mixture of isomers), the EC50 came to 1.7 nM in assay [1] (setting [5]), 36 nM in assay [2] (setting [5]), 6.8 nM in assay [3] (setting [5]) and 24.2 nM in assay [4] (setting [5]).

As for `C=C(C)[C@@H]1CC[C@]2(NCCN3CCS(=O)(=O)CC3)CC[C@]3(C)[C@H](CC[C@@H]4[C@@]5(C)CC=C(C6=CC[C@@](COc7ccccn7)(C(=O)O)CC6)C(C)(C)[C@@H]5CC[C@]43C)[C@@H]12`, the EC50 in assay [1] (setting [5]) was determined as 3.5 nM; in assay [2] (setting [5]), 44.9 nM; in assay [3] (setting [5]) it was 19.2 nM; in assay [4] (setting [5]), 7.2 nM.

With `C=C(C)[C@@H]1CC[C@]2(NCCN3CCS(=O)(=O)CC3)CC[C@]3(C)[C@H](CC[C@@H]4[C@@]5(C)CC=C(C6=CCC(COc7ccncn7)(C(=O)O)CC6)C(C)(C)[C@@H]5CC[C@]43C)[C@@H]12` (mixture of isomers), the EC50 came to 1.7 nM in assay [1] (setting [5]), 23.4 nM in assay [2] (setting [5]), 68.6 nM in assay [3] (setting [5]) and 10 nM in assay [4] (setting [5]).

With `C=C(C)[C@@H]1CC[C@]2(NCCN3CCS(=O)(=O)CC3)CC[C@]3(C)[C@H](CC[C@@H]4[C@@]5(C)CC=C(C6=CCC(COc7cccc(Cl)c7)(C(=O)O)CC6)C(C)(C)[C@@H]5CC[C@]43C)[C@@H]12` (mixture of isomers), the EC50 in assay [1] (setting [5]) stood at 10.7 nM; in assay [2] (setting [5]), 22 nM; in assay [3] (setting [5]) it was 49.2 nM; in assay [4] (setting [5]), 16.8 nM.

Consider `C=C(C)[C@@H]1CC[C@]2(NCCN3CCS(=O)(=O)CC3)CC[C@]3(C)[C@H](CC[C@@H]4[C@@]5(C)CC=C(C6=CC[C@@](COc7ncccc7C#N)(C(=O)O)CC6)C(C)(C)[C@@H]5CC[C@]43C)[C@@H]12` [ZEGRUVIRIMAT], for which the EC50 was 2.5 nM in assay [1] (setting [5]), 41.1 nM in assay [2] (setting [5]), 5.8 nM in assay [3] (setting [5]) and 52.6 nM in assay [4] (setting [5]).

Regarding `C=C(C)[C@@H]1CC[C@]2(NCCN3CCS(=O)(=O)CC3)CC[C@]3(C)[C@H](CC[C@@H]4[C@@]5(C)CC=C(C6=CCC(COc7ccccc7Cl)(C(=O)O)CC6)C(C)(C)[C@@H]5CC[C@]43C)[C@@H]12` (mixture of isomers), the 50% effective concentration (EC50) in assay [1] (setting [5]) is 9.7 nM; in assay [2] (setting [5]), 59.7 nM; in assay [3] (setting [5]), 23.1 nM; in assay [4] (setting [5]), 20.1 nM.

Turning to `C=C(C)[C@@H]1CC[C@]2(NCCN3CCS(=O)(=O)CC3)CC[C@]3(C)[C@H](CC[C@@H]4[C@@]5(C)CC=C(C6=CCC(COc7ccc(F)cc7)(C(=O)O)CC6)C(C)(C)[C@@H]5CC[C@]43C)[C@@H]12` (mixture of isomers), the EC50 was found to be 4.7 nM in assay [1] (setting [5]), 74.5 nM in assay [2] (setting [5]), 26.5 nM in assay [3] (setting [5]) and 21.7 nM in assay [4] (setting [5]).

On to `C=C(C)[C@@H]1CC[C@]2(NCCN3CCS(=O)(=O)CC3)CC[C@]3(C)[C@H](CC[C@@H]4[C@@]5(C)CC=C(C6=CCC(COc7ccccc7F)(C(=O)O)CC6)C(C)(C)[C@@H]5CC[C@]43C)[C@@H]12` (mixture of isomers), for which the EC50 amounted to 6.1 nM in assay [1] (setting [5]), 58.4 nM in assay [2] (setting [5]), 19.3 nM in assay [3] (setting [5]) and 27.3 nM in assay [4] (setting [5]).

Consider `C=C(C)[C@@H]1CC[C@]2(NCCN3CCS(=O)(=O)CC3)CC[C@]3(C)[C@H](CC[C@@H]4[C@@]5(C)CC=C(C6=CCC(COc7cccc(F)c7)(C(=O)O)CC6)C(C)(C)[C@@H]5CC[C@]43C)[C@@H]12` (mixture of isomers), for which the EC50 in assay [1] (setting [5]) is 8.3 nM; in assay [2] (setting [5]), 14.8 nM; in assay [3] (setting [5]) it was 34.3 nM; in assay [4] (setting [5]), 55.7 nM.

As for `C=C(C)[C@@H]1CC[C@]2(NCCN3CCS(=O)(=O)CC3)CC[C@]3(C)[C@H](CC[C@@H]4[C@@]5(C)CC=C(C6=CCC(COc7nccs7)(C(=O)O)CC6)C(C)(C)[C@@H]5CC[C@]43C)[C@@H]12` (mixture of isomers), the EC50 worked out at 3.6 nM in assay [1] (setting [5]), 24.5 nM in assay [2] (setting [5]), 38.9 nM in assay [3] (setting [5]) and 2.4 nM in assay [4] (setting [5]).

On to `C=C(C)[C@@H]1CC[C@]2(NCCN3CCS(=O)(=O)CC3)CC[C@]3(C)[C@H](CC[C@@H]4[C@@]5(C)CC=C(C6=CCC(COc7ccc(Cl)cc7)(C(=O)O)CC6)C(C)(C)[C@@H]5CC[C@]43C)[C@@H]12` (stereo in doubt; 8), for which the EC50 was found to be 29.4 nM in assay [1], 149 nM in assay [2], 49.6 nM in assay [3] (setting [5]) and 75.3 nM in assay [4].

For `C=C(C)[C@@H]1CC[C@]2(NCCN3CCS(=O)(=O)CC3)CC[C@]3(C)[C@H](CC[C@@H]4[C@@]5(C)CC=C(C6=CCC(COc7ccc(Cl)cc7)(C(=O)O)CC6)C(C)(C)[C@@H]5CC[C@]43C)[C@@H]12` (stereo in doubt; 9), the EC50 was found to be 3.2 nM in assay [1], 9.9 nM in assay [2], 85.3 nM in assay [3] and 244 nM in assay [4].

Take `C=C(C)[C@@H]1CC[C@]2(NCCN3CCS(=O)(=O)CC3)CC[C@]3(C)[C@H](CC[C@@H]4[C@@]5(C)CC=C(C6=CCC(COc7ccccc7)(C(=O)O)CC6)C(C)(C)[C@@H]5CC[C@]43C)[C@@H]12` (mixture of isomers): the EC50 in assay [1] (setting [5]) is 5 nM; in assay [2] (setting [5]), 58.4 nM; in assay [3] (setting [5]), 27.8 nM; in assay [4] (setting [5]), 19.7 nM.

For `C=C(C)[C@@H]1CC[C@]2(NCCN3CCS(=O)(=O)CC3)CC[C@]3(C)[C@H](CC[C@@H]4[C@@]5(C)CC=C(C6=CCC(COc7cccc(C#N)n7)(C(=O)O)CC6)C(C)(C)[C@@H]5CC[C@]43C)[C@@H]12` (mixture of isomers), the half-maximal effective concentration (EC50) was 13.9 nM in assay [1] (setting [5]), 15.7 nM in assay [2] (setting [5]), 15.8 nM in assay [3] (setting [5]) and 26.4 nM in assay [4] (setting [5]).
